# Test system: IL-5 production
# Assay: In vitro inhibition of IL-5 production in human blood (phytohemagglutinin-stimulated whole blood, ELISA);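 further: values marked with an asterisk were tested at 10 µM and unmarked values at 1 µM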
# Type: cell-based
# Settings: test dose 1×10^−6 M, 48 hours
# Summary of the method: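 Percent inhibition of IL-5, quantified by ELISA in cell-free supernatants, is given at a single dose of 1×10^−6 M (or 1×10^−5 M). Threefold-diluted human whole blood from healthy men received compound for 60 min at 37° C before 48 h PHA stimulation at 2 μg/mL.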
row,SMILES,% inh. (percentage inhibition of IL-5 production) [%]
1,Cc1nc(-c2cccc(F)c2)c(C(c2ccc(Cl)cc2)c2ccc(-n3ncc(=O)[nH]c3=O)cc2Cl)s1 (racemic) [Compound 143],81
2,O=c1cnn(-c2cc(Cl)c(C(c3ccc(Cl)cc3)c3nc(-c4ccccc4Cl)cs3)c(Cl)c2)c(=O)[nH]1 (racemic) [Comp 32],90
3,Cc1nc(-c2ccccc2)c(C(c2ccc(Cl)cc2)c2ccc(-n3ncc(=O)[nH]c3=O)cc2)s1 (racemic) [Compound 146],83
4,CN(C)Cc1sc(C(c2ccc(Cl)cc2)c2c(Cl)cc(-n3ncc(=O)[nH]c3=O)cc2Cl)nc1-c1cccc(F)c1 (racemic) [Comp 280],96
5,Cc1sc(-c2ccccc2)nc1C(c1ccc(Cl)cc1)c1c(Cl)cc(-n2ncc(=O)[nH]c2=O)cc1Cl (racemic) [Compound 365],88
6,Cn1c(-c2ccccc2)nnc1C(c1ccc(Cl)cc1)c1c(Cl)cc(-n2ncc(=O)[nH]c2=O)cc1Cl.O (stereo not drawn) [Comp 428],66
7,O=c1cnn(-c2ccc(C(c3ccc(Cl)cc3)c3sc(-c4ccccc4)nc3-c3ccccc3Cl)c(Cl)c2)c(=O)[nH]1 (racemic) [Compound 144],40
8,O=c1cnn(-c2ccc(C(Nc3nccs3)c3ccc(Cl)cc3)c(Cl)c2)c(=O)[nH]1 (racemic) [Compound 44],40
9,O=c1cnn(-c2ccc(C(c3ccc(Cl)cc3)c3nc4sccn4c3-c3ccccc3)c(Cl)c2)c(=O)[nH]1 (stereo not drawn) [Comp 432],82
10,NC(c1ccc(Cl)cc1)(c1nc2ccccc2s1)c1ccc(-n2ncc(=O)[nH]c2=O)cc1Cl (stereo not drawn) [Comp 416],79
11,O=c1cnn(-c2cc(Cl)c(C(Sc3nc4ccccc4s3)c3ccc(Cl)c(C(F)(F)F)c3)c(Cl)c2)c(=O)[nH]1 (stereo not drawn) [Compound 385],95
12,Cc1ccc2[nH]c(SC(c3ccc(Cl)cc3)c3ccc(-n4ncc(=O)[nH]c4=O)cc3Cl)nc2c1 (racemic) [Compound 62],30
13,O=c1cnn(-c2cc(Cl)c(C(c3ccc(Cl)cc3)c3nnc(-c4ccc(Br)cc4)o3)c(Cl)c2)c(=O)[nH]1 (racemic) [Compound 168],80
14,O=c1cnn(-c2cc(Cl)c(C(c3ccc(Cl)cc3)c3csc(-c4ccccc4F)n3)c(Cl)c2)c(=O)[nH]1 (racemic) [Compound 364],95
15,Cc1oc(C(c2ccc(Cl)cc2)c2c(Cl)cc(-n3ncc(=O)[nH]c3=O)cc2Cl)nc1-c1ccccc1 (stereo not drawn) [Comp 426],92
16,CN(C)c1ccnc(SC(c2ccc(Cl)cc2)c2c(Cl)cc(-n3ncc(=O)[nH]c3=O)cc2Cl)n1 (racemic) [Compound 355],83
17,CN(C)CCN(C)Cc1sc(C(c2ccc(Cl)cc2)c2c(Cl)cc(-n3ncc(=O)[nH]c3=O)cc2Cl)nc1-c1ccccc1 (racemic) [Comp 311],64
18,CCOC(=O)N1CCC(Nc2ccnc(SC(c3ccc(Cl)cc3)c3c(Cl)cc(-n4ncc(=O)[nH]c4=O)cc3Cl)n2)CC1 (racemic) [Compound 351],62
19,"O=c1cnn(-c2cc(Cl)c(C(c3ccc(Cl)cc3)c3csc(-c4ccccc4)n3)c(Cl)c2)c(=O)[nH]1 (racemic) [Compound 363, (±)-2-[3,5-dichloro-4-[(4-chlorophenyl)(2-phenyl-4-thiazoyl)methyl]phenyl]-1,2,4-triazine-3,5(2H,4H)-dione]",91
20,Cc1cc(C(C)(c2nc(-c3ccccc3)cs2)c2ccc(-n3ncc(=O)[nH]c3=O)cc2Cl)ccc1Cl (racemic) [Comp 247],80
21,CC(c1ccc(Cl)cc1)(c1nc(-c2ccccc2)c(-c2ccccc2)s1)c1c(Cl)cc(-n2ncc(=O)[nH]c2=O)cc1Cl (racemic) [Comp 18],88
22,Nc1cc(O)nc(SC(c2ccc(Cl)cc2)c2ccc(-n3ncc(=O)[nH]c3=O)cc2Cl)n1 (stereo not drawn) [Compound 87],9
23,"O=c1cnn(-c2cc(Cl)c(C(Sc3ncccn3)c3ccc(Cl)cc3)c(Cl)c2)c(=O)[nH]1 (single isomer, unassigned) [Compound 346]",86
24,O=C(NCc1sc(C(c2ccc(Cl)cc2)c2c(Cl)cc(-n3ncc(=O)[nH]c3=O)cc2Cl)nc1-c1ccccc1)Nc1ccc(Cl)cc1 (racemic) [Comp 333],61
25,Cc1cc(C(C)(c2ccc(Cl)c(C(F)(F)F)c2)c2nc(-c3ccccc3)c(C)s2)c(Cl)cc1-n1ncc(=O)[nH]c1=O (racemic) [Comp 238],74

row,SMILES,% inh. (percentage inhibition of IL-5 production) [%]
1,O=c1cnn(-c2cc(Cl)c(C(Sc3ccccn3)c3ccc(Cl)cc3)c(Cl)c2)c(=O)[nH]1 (stereo not drawn) [Compound 377],87
2,"O=c1cnn(-c2cc(Cl)c(C(CSc3ccccn3)c3ccc(Cl)cc3)c(Cl)c2)c(=O)[nH]1 (racemic) [Compound 422, (±)-2-[3,5-dichloro[1-(4-chlorophenyl)-2-(2-pyridinylthio)ethyl]phenyl-1,2,4-triazine-3,5(2H,4H)-dione]",87
3,O=c1cnn(-c2cc(Cl)c(C(c3ccc(Cl)cc3)c3cnc(-c4ccccc4)s3)c(Cl)c2)c(=O)[nH]1 (racemic) [Compound 142],80
4,CN(C)Cc1nnc(C(c2ccc(Cl)cc2)c2c(Cl)cc(-n3ncc(=O)[nH]c3=O)cc2Cl)o1 (racemic) [Compound 198],46
5,O=c1cnn(-c2cc(Cl)c(C(c3ccc(Cl)cc3)c3nnc(-c4cccc(Cl)c4)o3)c(Cl)c2)c(=O)[nH]1 (racemic) [Compound 157],85
6,CCc1sc(C(c2ccc(Cl)cc2)c2c(Cl)cc(-n3ncc(=O)[nH]c3=O)cc2Cl)nc1-c1cccc(F)c1 (racemic) [Comp 260],98
7,O=c1cnn(-c2cc(Cl)c(C(Sc3nc4cccnc4s3)c3ccc(Cl)c(C(F)(F)F)c3)c(Cl)c2)c(=O)[nH]1 (stereo not drawn) [Compound 382],95
8,CCOC(=O)Cc1sc(C(c2ccc(Cl)cc2)c2c(Cl)cc(-n3ncc(=O)[nH]c3=O)cc2Cl)nc1-c1ccccc1Cl (racemic) [Comp 293],59
9,O=c1cnn(-c2cc(Cl)c(C(Sc3nnc(-c4ccccc4)o3)c3ccc(Cl)c(C(F)(F)F)c3)c(Cl)c2)c(=O)[nH]1 (stereo not drawn) [Compound 391],97
10,CC(c1ccc(Cl)c(C(F)(F)F)c1)(c1nnc(-c2ccccc2)o1)c1ccc(-n2ncc(=O)[nH]c2=O)cc1Cl (racemic) [Compound 155],80
11,Nc1ccnc(SC(c2ccc(Cl)cc2)c2ccc(-n3ncc(=O)[nH]c3=O)cc2Cl)n1 (racemic) [Compound 343],66
12,O=c1cnn(-c2cc(Cl)c(C(c3ccc(Cl)cc3)c3csc(-c4cccc(F)c4)n3)c(Cl)c2)c(=O)[nH]1 (racemic) [Compound 368],88
13,O=c1cnn(-c2cc(Cl)c(C(Sc3ncccn3)c3ccc(Cl)c(C(F)(F)F)c3)c(Cl)c2)c(=O)[nH]1 (racemic) [Compound 341],96
14,O=c1cnn(-c2cc(Cl)c(C(SC3=NCCS3)c3ccc(Cl)c(C(F)(F)F)c3)c(Cl)c2)c(=O)[nH]1 (stereo not drawn) [Compound 386],97
15,O=c1cnn(-c2cc(Cl)c(C(c3ccc(Cl)cc3)c3nnc(COc4ccccc4Cl)o3)c(Cl)c2)c(=O)[nH]1 (racemic) [Compound 175],58
16,O=c1cnn(-c2cc(Cl)c(C(c3ccc(Cl)cc3)c3nnc(-c4ccco4)o3)c(Cl)c2)c(=O)[nH]1 (racemic) [Compound 161],91
17,COCCNC(c1ccc(Cl)cc1)c1ccc(-n2ncc(=O)[nH]c2=O)cc1Cl (racemic) [Compound 41],11
18,O=c1cnn(-c2ccc(C(Sc3nccc(-c4cccs4)n3)c3ccc(Cl)cc3)c(Cl)c2)c(=O)[nH]1 (stereo not drawn) [Compound 84],73
19,O=c1cnn(-c2cc(Cl)c(C(c3ccc(Cl)cc3)c3nc(-c4cc(F)ccc4F)cs3)c(Cl)c2)c(=O)[nH]1 (racemic) [Comp 290],92
20,Cn1cc(-c2ccccc2)nc1C(c1ccc(Cl)cc1)c1c(Cl)cc(-n2ncc(=O)[nH]c2=O)cc1Cl (stereo not drawn) [Comp 425],70
21,Cc1nc(-c2ccccc2F)c(C(c2ccc(Cl)cc2)c2c(Cl)cc(-n3ncc(=O)[nH]c3=O)cc2Cl)s1 (racemic) [Compound 152],87
22,O=c1cnn(-c2cc(Cl)c(C(c3ccc(Cl)cc3)c3sc(-c4ccccc4Cl)nc3-c3ccccc3Cl)c(Cl)c2)c(=O)[nH]1 (racemic) [Compound 147],50
23,Cc1nc(C(c2ccc(Cl)cc2)c2ccc(-n3ncc(=O)[nH]c3=O)cc2Cl)c(-c2ccccc2)s1 (racemic) [Compound 369],66
24,Cc1sc(C(C)(c2ccc(Cl)c(Cl)c2)c2c(Cl)cc(-n3ncc(=O)[nH]c3=O)cc2Cl)nc1-c1ccccc1 (racemic) [Comp 233],84

# Same assay, conditions: test dose 1×10^−6 M, 48 hours, read-out: % inh. (percentage inhibition of IL-5 production)
row,SMILES,inhibition at 1 µM [%]
1,"O=c1cnn(-c2ccc(C(Sc3ncc[nH]3)c3ccc(Cl)cc3)c(Cl)c2)c(=O)[nH]1 (racemic) [Compound 94, (±)-2-[3-chloro-4-[(4-chlorophenyl)(1H-imidazol-2-ylthio)methyl]phenyl]-1,2,4-triazine-3,5(2H,4H)-dione]",18
2,"CC(C)COC(c1ccc(Cl)cc1)c1ccc(-n2ncc(=O)[nH]c2=O)cc1Cl (racemic) [Compound 133, (±)-2-[3-chloro-4-[(4-chloro-phenyl)(2-methylpropoxy)methyl]phenyl]-1,2,4-triazine-3,5(2H,4H)-dione]",50
